Measured values reported in patent publication US11091486B2, “Process for the preparation of pyrazolo[1,5-a]pyrimidines and salts thereof” (Array BioPharma Inc., priority 2016, dated 2021).

Experiments:
[1] = system: Rat cryopreserved hepatocytes; test: In vitro metabolic stability in rat hepatocytes (Example 34); type: in vitro ADME, Sprague Dawley rat; settings: 1 μM, predicted hepatic extraction ratio
Procedure: In vitro metabolic stabilities were studied at a concentration of 1 μM in the presence of liver microsomes and isolated hepatocytes.
A stock solution of the test compound was prepared at 10 mM (active compound) in DMSO. The in vitro stability of the test compound (1 μM) was assessed in the presence of hepatocytes as follows. Cryopreserved hepatocytes were thawed, isolated from shipping media and diluted to a density of 1×10^6 viable cells/mL, according to the supplier's guidelines, using Dulbecco's Modified Eagle Medium, 1×, high glucose (DMEM, Invitrogen, Carlsbad, Calif.). Viability was determined by trypan blue exclusion using a hemocytometer (3500 Hausser, VWR, West Chester, Pa.). […]
Data were acquired and peak areas were calculated for test compounds and the internal standard using Analyst 1.6.1 software (Sciex). […]
All calculations were performed using BioAssay Enterprise. The mean peak area ratios were calculated by averaging the peak area ratios (n=2) of test compound and the internal standard for each sample. Percent remaining was calculated by determining the ratio of the peak area ratio at each time point to the peak area ratio of the time-zero samples. The rate of loss of test compound (km) was determined by linear regression of—1n(f(t)) versus time. […] The t½ was determined dividing 1n(2) by km. […]

MDR1 (P-gp) = target: T1, MDR1 (P-gp) (Homo sapiens, UniProt P08183); test: MDR1 efflux in MDR1 transfected LLC-PK1 cells (Example 35); type: in vitro ADME; settings: pig, MDR1 transfected LLC-PK1 monolayers, read-out: MDRI efflux ratio
T1 construct: expressed in transfected cells; host or cells: LLC-PK1 cells
T1 sequence (P08183 whole entry): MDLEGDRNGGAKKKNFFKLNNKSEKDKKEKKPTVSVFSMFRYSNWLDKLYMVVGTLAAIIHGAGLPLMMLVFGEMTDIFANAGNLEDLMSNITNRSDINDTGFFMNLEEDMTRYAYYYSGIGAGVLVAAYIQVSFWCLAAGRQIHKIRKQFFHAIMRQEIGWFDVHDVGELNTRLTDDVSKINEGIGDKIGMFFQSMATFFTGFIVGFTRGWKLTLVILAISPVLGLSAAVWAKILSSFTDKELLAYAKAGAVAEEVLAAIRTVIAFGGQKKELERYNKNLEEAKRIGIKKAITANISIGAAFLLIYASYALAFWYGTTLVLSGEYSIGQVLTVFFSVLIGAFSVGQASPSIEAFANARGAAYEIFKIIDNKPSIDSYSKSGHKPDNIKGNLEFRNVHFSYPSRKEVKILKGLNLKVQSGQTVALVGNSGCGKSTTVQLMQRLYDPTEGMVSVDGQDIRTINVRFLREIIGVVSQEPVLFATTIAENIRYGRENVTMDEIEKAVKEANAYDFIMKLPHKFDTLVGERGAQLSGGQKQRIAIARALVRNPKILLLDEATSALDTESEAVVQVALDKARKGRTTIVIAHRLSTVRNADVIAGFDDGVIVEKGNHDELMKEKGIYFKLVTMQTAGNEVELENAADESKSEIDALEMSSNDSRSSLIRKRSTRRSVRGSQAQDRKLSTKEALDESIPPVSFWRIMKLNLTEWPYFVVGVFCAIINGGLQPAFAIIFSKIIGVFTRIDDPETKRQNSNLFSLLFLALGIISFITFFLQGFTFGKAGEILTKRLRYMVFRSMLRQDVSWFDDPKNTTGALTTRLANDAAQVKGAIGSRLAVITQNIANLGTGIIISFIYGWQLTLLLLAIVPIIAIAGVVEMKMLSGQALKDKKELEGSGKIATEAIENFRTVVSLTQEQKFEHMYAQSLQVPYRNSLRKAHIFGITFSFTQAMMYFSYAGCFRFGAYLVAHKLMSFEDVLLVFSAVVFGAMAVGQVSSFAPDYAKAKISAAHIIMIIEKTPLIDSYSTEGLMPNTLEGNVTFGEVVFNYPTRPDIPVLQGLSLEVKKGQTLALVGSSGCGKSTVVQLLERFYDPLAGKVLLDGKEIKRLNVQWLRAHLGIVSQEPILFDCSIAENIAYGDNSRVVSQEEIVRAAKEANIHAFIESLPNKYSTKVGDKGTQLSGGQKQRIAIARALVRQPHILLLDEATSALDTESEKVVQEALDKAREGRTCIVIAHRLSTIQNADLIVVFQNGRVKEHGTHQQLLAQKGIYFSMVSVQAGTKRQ
Procedure: Both LLC-PK1 and MDR1 transfected LLC-PK1 cells were cultured and plated according to manufacturer's recommendations with the exception that the passage media contained only 2% fetal bovine serum so as to extend passage time out to seven days.
Both positive and negative controls were used to assess functionality of P-gp efflux in the assay. Stock solutions for assay controls and the test article were prepared in DMSO for a final test concentrations of 10 μM. Final organic concentration in the assay was 1%. All dosing solutions contained 10 μM lucifer yellow to monitor LLC-PK1 cell monolayer integrity.
For the apical to basolateral determination (A to B), 75 μL of the test article in transport buffer were added to the apical side of the individual transwells and 250 μL of basolateral media, without compound or lucifer yellow, were added to each well. […] The plates were read using a Molecular Devices (Sunnyvale, Calif.) Gemini Fluorometer to evaluate the lucifer yellow concentrations at excitation/emission wavelengths of 425/535 nm. […] The plates were sealed and the contents of each well analyzed by LC-MS/MS. The compound concentrations were determined from the ratio of the peak areas of the compound to the internal standard (labetalol) in comparison to the dosing solution.
Permeability (Papp) was calculated in BioAssay v. […]

Compound	Rat Hepatocyte Clearance (% ER) [1]	efflux ratio at 2 h, 10 μM (MDR1 (P-gp))
C[C@@H]1CCc2ncc(F)cc2[C@H]2CCCN2c2ccn3ncc(c3n2)C(=O)N1 [Formula I]	64 % ER	14
C[C@H]1CCc2ncc(F)cc2[C@H]2CCCN2c2ccn3ncc(c3n2)C(=O)N1 [formula I′]	83 % ER	5
